In patent US7960365B2, “Compounds with medicinal effects due to interaction with the glucocorticoid receptor” (N.V. Organon, priority 2006, dated 2011):

Biological target: T1, recombinant human-GR (GR) (Homo sapiens, UniProt P04150)
T1 construct: purchased PanVera
T1 sequence (P04150 1-777): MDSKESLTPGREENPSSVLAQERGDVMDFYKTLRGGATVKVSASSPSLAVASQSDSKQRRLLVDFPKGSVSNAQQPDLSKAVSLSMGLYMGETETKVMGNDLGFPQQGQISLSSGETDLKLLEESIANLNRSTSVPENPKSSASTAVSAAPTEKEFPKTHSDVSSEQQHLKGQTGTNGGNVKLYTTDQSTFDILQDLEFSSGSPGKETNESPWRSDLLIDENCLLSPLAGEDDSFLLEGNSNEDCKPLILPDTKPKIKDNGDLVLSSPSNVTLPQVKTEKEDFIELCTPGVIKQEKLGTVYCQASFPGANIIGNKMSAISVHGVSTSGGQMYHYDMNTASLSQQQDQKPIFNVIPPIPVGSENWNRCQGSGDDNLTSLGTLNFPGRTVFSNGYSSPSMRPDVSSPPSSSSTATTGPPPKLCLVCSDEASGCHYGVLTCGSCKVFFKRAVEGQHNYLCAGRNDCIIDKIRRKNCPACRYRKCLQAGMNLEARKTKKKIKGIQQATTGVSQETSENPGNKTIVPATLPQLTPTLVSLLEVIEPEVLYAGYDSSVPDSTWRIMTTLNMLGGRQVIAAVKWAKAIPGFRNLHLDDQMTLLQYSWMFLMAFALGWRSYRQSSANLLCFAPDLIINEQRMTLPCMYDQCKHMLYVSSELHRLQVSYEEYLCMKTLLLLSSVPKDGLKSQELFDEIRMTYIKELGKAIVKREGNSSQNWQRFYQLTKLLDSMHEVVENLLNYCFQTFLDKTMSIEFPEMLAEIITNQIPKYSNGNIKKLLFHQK
Assay: Glucocorticoid Receptor Competitor Assay kit (PanVera), fluorescence polarisation competition binding
Conditions: fluormone GS1 1 nM, GR 4 nM, 90 minutes at room temperature
Method: The affinity of compounds was tested using a Glucocorticoid Receptor Competitor Assay kit (PanVera®). Components of the kit were thawed from −80° C. on ice (Fluormone GS1, recombinant human-GR (GR)) or at room temperature (GR screening buffer, stabilising peptide and DTT). 10 mM test compounds were manually diluted to 20 μM then serially diluted to a final concentration range of 10 μM to 0.1 nM using the BioMek 2000 (Beckman-Coulter) into a black walled 384 welled plate (Matrix technologies). In the following order: fluormone GS1 (1 nM final concentration) is added to all wells excluding the buffer control wells, GR (4 nM final concentration) is added to all wells except minimum and buffer control wells, cortisol (10 μM final concentration) is added to fluormone GS1 control wells only, buffer is added to all wells to a final volume of 40 μl. The plate is covered and incubated at room temperature with agitation for 90 minutes. Readings were taken using the Analyst (LJL) in fluorescence polarisation reading mode. The MilliP ratio is calculated from cps readings obtained in parallel and perpendicular mode. The percent effect of the bound ligand is calculated at each concentration and the dose response curves plotted allowing the EC50 to be calculated. […]

## CC#C[C@]1(O)CC[C@H]2[C@@H]3CCC4=CC(=O)CCC4=C3[C@@H](c3ccc4c(c3)OCO4)C[C@@]21C [(11beta, 17beta)-11-(1,3-benzodioxol-5-yl)-17-hydroxy-17-(1-propynyl)estra-4,9-dien-3-one]
  EC50: 0.01 µM
